The values that follow come from paper PMC12750995, “Conformational Dynamics in the Cell Membrane Interactions of Bispecific Targeted Degrader Therapeutics” (Journal of Medicinal Chemistry, 2025).

The nature of one data set: in vitro. To be noted: human, pH 7.4, n = 3.
Data set [1] can be described thus: Equilibrium dialysis binding to HEK293 cell homogenate (fraction unbound). Type of data set: in vitro ADME. Particulars: human, pH 7.4; fraction unbound in HEK293 cell homogenate, 10 × 10^6 cells/mL, 0.1 μM, 4 h, 37 °C; read-out: fu,hom. As to the method:
(§1) The unbound fraction of a selected series of PROTACs was determined through equilibrium dialysis against the cell homogenate. HEK293 cells (ATCC, Manassas, VA) were grown in Dulbecco’s modified Eagle’s medium (DMEM) supplemented with 10% fetal bovine serum (FBS) at 37 °C, 95% relative humidity, and 5% CO2. Cell pellets were harvested using 0.05% trypsin and centrifuged at 260g for 5 min. The cells were resuspended in Dulbecco’s phosphate buffer (DPBS), counted using a Luna II cell counter (Logos Biosystems, Anyang, South Korea) and centrifuged at 260g. The supernatant was discarded, and cell pellets were stored at −80 °C prior to cell homogenate preparation. On the day of the experiment, cell pellets were thawed and resuspended in Hank’s balanced salt solution (HBSS) buffered with 20 mM HEPES (pH 7.4) to a concentration of 10 × 10^6 cells/mL. The cell suspension was homogenized using ultrasonication for 10 s at 20% intensity while kept on ice.
(§2) Compound stability was assessed by adding the compound-spiked cell homogenate to an empty well in the dialysis cassette. At the end of the experiment, these concentrations were compared to identical control samples stored at 4 °C. Mass balance was calculated at the end of each experiment. Further, in all wells, two control compounds (atorvastatin and lopinavir) were included to ensure that the assay plate was functional. All compounds were tested in triplicate in one experiment. Compound 2 was only detected on the cell homogenate side, and thus, the concentration on the buffer side was set to half of the lower limit of quantification to allow calculation of an approximate cell homogenate binding.
(§3) Final samples were matrix matched by taking 1 part sample and 1 part blank cell homogenate or buffer. Proteins were precipitated using 1 part matrix matched sample and 3 parts acetonitrile supplemented with 0.3% formic acid (FA) and 5 nM verapamil (internal standard), and this was diluted 1:1 with Milli-Q prior to centrifugation at 2500g for 20 min. Compound concentrations in the supernatant were quantified using a reversed phase system with a Waters Acquity UPLC HSS T3 column (50 × 2.1 mm, 1.8 μm) in an Aquity UPLC connected to a Xevo TQ-XS mass spectrometer (Waters Corp., Milford, MA). The chromatographic run was done using solvent A (0.1% FA in Milli-Q) and solvent B (0.1% FA in acetonitrile Optima LC/MS grade (Fisher Scientific)) with isocratic conditions between 0 and 0.3 min (99.8% solvent A and 0.2% solvent B), a linear gradient between 0.3 and 1.3 min (from 0.2% to 95% solvent B), isocratic conditions between 1.3 and 1.8 min (95% solvent B), and equilibration back to start conditions between 1.8 and 2.3 min. Mass transitions, cone voltages, and collision energies can be found in Table S4.

The next data set deals with HEK293 cell homogenate. The data set is described as above. The data set is classed as in vitro ADME. To be noted: for cell homogenate binding (bound-to-unbound concentration ratio) compared with matched compound: Figure 6G, 11 vs 9, 8 vs 14, 9 vs 16; for fold higher bound-to-unbound concentration ratio than compound 9: comparator compound 9. The method, then: as §1, §2, §3

Data set [2] in a line: Caco-2 A-B passive permeability with preincubation, transporter-inhibited. The data set is classed as in vitro ADME. To be noted: human, Caco-2, with 50 μM quinidine, 30 μM benzbromarone, 20 μM sulfasalazine; Figure 3A grouping; read-out: Passive Caco-2 cell permeability group (high, moderate or low). As to the method:
(§4) Transepithelial transport of the compounds through a Caco-2 monolayer (ATCC, HTB-37) was determined in 14–18 days old monolayers in Costar 24-well cell culture cluster plates (polycarbonate membrane, 0.4 μm pore size). Chamber volumes were 200 and 800 μL on the apical and basolateral sides of the cell monolayers, respectively, and all incubations were performed with prewarmed buffers in an orbital shaking incubator at 480 rpm and 37 °C. Prior to the assay, cells were washed with HBSS supplemented with 25 mM HEPES (HBSS-HEPES), pH 7.4, to remove the culture medium. After 15 min of equilibration, the transepithelial electrical resistance (TEER) was determined to assess acceptance of the cell plates into the assay. A second measurement and a lucifer yellow leakage determination was carried out after performing all the transport experiments to monitor integrity of the cell monolayers throughout the study.
(§5) Before the permeability study, to minimize nonspecific binding of PROTACs to the cells and plates, the cells were preincubated with 10 μM compound solution on the apical (donor) side for 1 h, analogous to Muschong et al. Then, cells were washed twice with HBSS-MES pH 6.5 containing 1% BSA. Then, permeability in the absorptive direction (A–B, apical-to-basolateral) was studied over 120 min at a 10 μM test compound concentration. The compound solutions were freshly prepared from DMSO stock solutions diluted into HBSS supplemented with 25 mM MES, pH 6.5, containing efflux inhibitors (50 μM quinidine, 30 μM benzbromarone, and 20 μM sulfasalazine); the final solvent concentration was always 0.5%.
(§6) Samples from the donor side (10 μL) were drawn immediately after the addition of the test compound and after 45 and 120 min. The donor samples were diluted 1:10 in HBSS. From the receiver compartment, an amount of 100 μL was withdrawn after 45 and 120 min and replaced with fresh HBSS-HEPES, pH 7.4.
(§7) Upon completion of the study, all samples were quenched with 300 μL of acetonitrile and analyzed subsequently using UPLC/MS/MS. The permeability was determined as the appearance rate of the compound on the receiver side, in relation to donor concentration, according to eq 4 Papp=dQ/[(dt)(T)]×A/D where dQ/[(dt)(T)] is the slope of the permeation profile across the Caco-2 cell monolayers, A is the surface area of the Transwell insert (0.33 cm^2), and D is the concentration on the donor side. Following the permeability experiments, recovery from the donor and receiver compartments was calculated using eq 5 recovery(%)(0−120min)=CR120×VR+CR45×0.1+CD45×0.01+CD120×VD/D0×VD×100

In a further data set the test system is Caco-2 monolayer. Described as above. The data set is classed as in vitro ADME. To be noted: recovery from donor and receiver compartments, 0-120 min. As to the method: as §4, §5, §6, §7

Experimental for in vitro: Binding to the cell homogenate was determined at 0.1 μM for all compounds. A Rapid Equilibrium Dialysis device (Thermo Fisher, Waltham, Massachusetts) was used to dialyze the samples by adding 200 μL of the compound-spiked cell homogenate to one chamber and 350 μL of HBSS/HEPES to the other chamber. The cassette was incubated on an Eppendorf ThermoMixer C (Hamburg, Germany) at 900 rpm for 4 h at 37 °C.

In the data set “in vitro” (HEK293 cell homogenate), `Cc1sc2c(c1C)C(c1ccc(Cl)cc1)=N[C@@H](CC(=O)NC[C@@H]1CCC[C@H](CNc3cccc4c3C(=O)N(C3CCC(=O)NC3=O)C4=O)C1)c1nnc(C)n1-2` (mixture of isomers) [Compound 12, 2-((6S)-4-(4-Chlorophenyl)-2,3,9-trimethyl-6H-thieno[3,2-f][1,2,4]triazolo[4,3-a][1,4]diazepin-6-yl)-N-(((1RS,3SR)-3-(((2-(2,6-dioxopiperidin-3-yl)-1,3-dioxoisoindolin-4-yl)amino)methyl)cyclohexyl)methyl)acetamide] yielded a fraction unbound at 4 h, 0.1 μM of 0.007.

With `COc1cc2c(Oc3ccc(NC(=O)C4(C(=O)Nc5ccc(F)cc5)CC4)cc3F)ccnc2cc1OCCCCOCCCCOCC(=O)NC(C(=O)N1CC(O)CC1C(=O)NCc1ccc(-c2scnc2C)cc1)C(C)(C)C` (stereo not drawn) [Compound 1], the fraction unbound at 4 h, 0.1 μM in data set [1] came out at 0.011. In addition, the “fu,hom mass balance” value in the data set on HEK293 cell homogenate (equilibrium dialysis, HEK293 cell homogenate, 0.1 μM) was 118%. Besides, in data set [2], the Papp A→B at 120 min, 10 μM is under 0.5 ×10⁻⁶ cm/s. For the same molecule, the “Papp Recovery (%) (0-120 min)” value with Caco-2 monolayer was determined as 39%.

For the molecule `Cc1ncsc1-c1ccc(CNC(=O)[C@H]2C[C@H](O)CN2C(=O)[C@@H](NC(=O)COCCOCCOCCNC(=O)C[C@@H]2N=C(c3ccc(Cl)cc3)c3c(sc(C)c3C)-n3c(C)nnc32)C(C)(C)C)cc1` [Compound 6], the Papp A→B at 120 min, 10 μM in data set [2] is 0.5 to 10 ×10⁻⁶ cm/s. For the same molecule, the fraction unbound at 4 h, 0.1 μM in “in vitro” (HEK293 cell homogenate) came out at 0.242.

With `COc1cc(-c2cn(C)c(=O)c3cnccc23)cc(OC)c1CN(C)CC(=O)NCCCCCCCCNc1cccc2c1C(=O)N(C1CCC(=O)NC1=O)C2=O` (stereo not drawn) [Compound 7], in data set [2], the Papp A→B at 120 min, 10 μM is over 10 ×10⁻⁶ cm/s. Further, in the data set “in vitro” (HEK293 cell homogenate), the fraction unbound at 4 h, 0.1 μM stood at 0.19.

Turning to `Cc1sc2c(c1C)C(c1ccc(Cl)cc1)=N[C@@H](CC(=O)NCCCCCCCCNC(=O)COc1cccc3c1C(=O)N(C1CCC(=O)NC1=O)C3=O)c1nnc(C)n1-2` (stereo partly drawn) [Compound 8], the “cell homogenate binding (bound-to-unbound concentration ratio) compared with matched compound” value with HEK293 cell homogenate was “higher experimental binding than 14”. Also, in the data set with HEK293 cell homogenate (HEK293 cell homogenate), the “fold higher bound-to-unbound concentration ratio than compound 9” value turned out to be 4.6 fold. The Papp A→B at 120 min, 10 μM in data set [2] was over 10 ×10⁻⁶ cm/s. The same molecule gave a fraction unbound at 4 h, 0.1 μM in “in vitro” (HEK293 cell homogenate) of 0.133.

For `Cc1sc2c(c1C)C(c1ccc(Cl)cc1)=N[C@@H](CC(=O)NCCCCNC(=O)COc1cccc3c1C(=O)N(C1CCC(=O)NC1=O)C3=O)c1nnc(C)n1-2` (stereo partly drawn) [Compound 9], in the data set with HEK293 cell homogenate, the “cell homogenate binding (bound-to-unbound concentration ratio) compared with matched compound” value is listed as “higher cell homogenate binding than 16”. Moreover, in data set [2], the Papp A→B at 120 min, 10 μM was under 0.5 ×10⁻⁶ cm/s. This molecule registered a fraction unbound at 4 h, 0.1 μM in “in vitro” (HEK293 cell homogenate) of 0.411.

For the molecule `COc1cc(-c2cn(C)c(=O)c3cnccc23)cc(OC)c1CN(C)CC(=O)NCCOCCOCCNc1cccc2c1C(=O)N(C1CCC(=O)NC1=O)C2=O` (stereo not drawn) [Compound 10], the “fold lower bound-to-unbound concentration ratio (membrane binding) than compound 7” value in the data set with HEK293 cell homogenate (HEK293 cell homogenate, comparator compound 7) is given as 5.3 fold. Moreover, the Papp A→B at 120 min, 10 μM in data set [2] was under 0.5 ×10⁻⁶ cm/s. The molecule further displayed a fraction unbound at 4 h, 0.1 μM in the data set “in vitro” (tissue homogenate) of 0.557.

Take `Cc1ncsc1-c1ccc(CNC(=O)[C@@H]2C[C@@H](O)CN2C(=O)[C@@H](NC(=O)CCCCNC(=O)C[C@@H]2N=C(c3ccc(Cl)cc3)c3c(sc(C)c3C)-n3c(C)nnc32)C(C)(C)C)cc1` [Compound 11, (2S,4R)-1-((2S)-2-(5-(2-((6S)-4-(4-Chlorophenyl)-2,3,9-trimethyl-6H-thieno[3,2-f][1,2,4]triazolo[4,3-a][1,4]diazepin-6-yl)acetamido)pentanamido)-3,3-dimethylbutanoyl)-4-hydroxy-N-(4-(4-methylthiazol-5-yl)benzyl)pyrrolidine-2-carboxamide]: the “cell homogenate binding (bound-to-unbound concentration ratio) compared with matched compound” value with HEK293 cell homogenate is listed as “higher cell homogenate binding than the CRBN-binding 9”. For the same molecule, in the data set on HEK293 cell homogenate (HEK293 cell homogenate), the “fold higher bound-to-unbound concentration ratio than compound 9” value stood at 3 fold. Besides, in the data set “in vitro” (HEK293 cell homogenate), the fraction unbound at 4 h, 0.1 μM was 0.139.

In turn, `Cc1sc2c(c1C)C(c1ccc(Cl)cc1)=N[C@@H](CC(=O)NCCCNc1cccc3c1C(=O)N(C1CCC(=O)NC1=O)C3=O)c1nnc(C)n1-2` (stereo partly drawn) [Compound 13, 2-((6S)-4-(4-Chlorophenyl)-2,3,9-trimethyl-6H-thieno[3,2-f][1,2,4]triazolo[4,3-a][1,4]diazepin-6-yl)-N-(3-((2-(2,6-dioxopiperidin-3-yl)-1,3-dioxoisoindolin-4-yl)amino)propyl)acetamide] gave a fraction unbound at 4 h, 0.1 μM in the data set “in vitro” (tissue homogenate) of 0.228.

Molecule `Cc1sc2c(c1C)C(c1ccc(Cl)cc1)=N[C@@H](CC(=O)NCCOCCOCCNC(=O)COc1cccc3c1C(=O)N(C1CCC(=O)NC1=O)C3=O)c1nnc(C)n1-2` (stereo partly drawn) [Compound 14, 2-((6S)-4-(4-Chlorophenyl)-2,3,9-trimethyl-6H-thieno[3,2-f][1,2,4]triazolo[4,3-a][1,4]diazepin-6-yl)-N-(2-(2-(2-(2-((2-(2,6-dioxopiperidin-3-yl)-1,3-dioxoisoindolin-4-yl)oxy)acetamido)ethoxy)ethoxy)ethyl)acetamide] came in with a fraction unbound at 4 h, 0.1 μM in the data set “in vitro” (HEK293 cell homogenate) of 0.432.

In turn, `Cc1sc2c(c1C)C(c1ccc(Cl)cc1)=N[C@@H](CC(=O)N1CCN(c3cccc4c3C(=O)N(C3CCC(=O)NC3=O)C4=O)CC1)c1nnc(C)n1-2` (stereo partly drawn) [Compound 15, 4-(4-(2-((6S)-4-(4-Chlorophenyl)-2,3,9-trimethyl-6H-thieno[3,2-f][1,2,4]triazolo[4,3-a][1,4]diazepin-6-yl)acetyl)piperazin-1-yl)-2-(2,6-dioxopiperidin-3-yl)isoindoline-1,3-dione] registered a fraction unbound at 4 h, 0.1 μM in the data set “in vitro” (HEK293 cell homogenate) of 0.182.

On to `Cc1sc2c(c1C)C(c1ccc(Cl)cc1)=N[C@@H](CC(=O)NCCOCCNC(=O)COc1cccc3c1C(=O)N(C1CCC(=O)NC1=O)C3=O)c1nnc(C)n1-2` (stereo partly drawn) [Compound 16, 2-((6S)-4-(4-Chlorophenyl)-2,3,9-trimethyl-6H-thieno[3,2-f][1,2,4]triazolo[4,3-a][1,4]diazepin-6-yl)-N-(2-(2-(2-((2-(2,6-dioxopiperidin-3-yl)-1,3-dioxoisoindolin-4-yl)oxy)acetamido)ethoxy)ethyl)acetamide], for which the fraction unbound at 4 h, 0.1 μM in “in vitro” (HEK293 cell homogenate) was found to be 0.5.

Consider `Cc1sc2c(c1C)C(c1ccc(Cl)cc1)=N[C@@H](CC(=O)N1CCC(Oc3cccc4c3C(=O)N(C3CCC(=O)NC3=O)C4=O)C1)c1nnc(C)n1-2` (stereo partly drawn) [Compound 17, 4-((1-(2-((6S)-4-(4-Chlorophenyl)-2,3,9-trimethyl-6H-thieno[3,2-f][1,2,4]triazolo[4,3-a][1,4]diazepin-6-yl)acetyl)pyrrolidin-3-yl)oxy)-2-(2,6-dioxopiperidin-3-yl)isoindoline-1,3-dione], for which the fraction unbound at 4 h, 0.1 μM in the data set “in vitro” (HEK293 cell homogenate) was 0.357.
